Measured values: patent US10882817B2, “Acetylsalicylic acid derivative crystal, its preparation method and use” (Zhejiang Yuejia Pharmaceuticals Co., Ltd, priority 2015, dated 2021)

Experiment: Stability test of 2-(diethylamino)ethyl 2-acetoxybenzoate hydrochloride crystal
Format: physicochemical
Conditions: for pH value / Other related substances / Related substances 2-(diethylamino)ethyl-salicylate hydrochloride / Related substances Acetylsalicylic acid / Related substances Salicylic acid / Content: stored at 25° C.±2° C.; for pH value: 1.0 g sample in 50 mL water, filtrate; for Other related substances / Related substances 2-(diethylamino)ethyl-salicylate hydrochloride / Related substances Acetylsalicylic acid / Related substances Salicylic acid: HPLC; for Content: HPLC external standard method
Description: The 2-(diethylamino)ethyl 2-acetoxybenzoate hydrochloride crystals obtained in Example 1 is taken and placed under the conditions of 25° C.±2° C., and sampling is carried out at month 0, month 3, month 6, month 9, and month 12, respectively, followed by the detection of the pH value, related substances and their contents. In the process, the pH value is obtained by taking about 1.0 g of a sample, adding 50 mL of water, shaking for 10 minutes, filtration, taking 10 mL of a subsequent filtrate and detection with a pH meter; and the related substances and the contents are both detected by high performance liquid chromatography (an external standard method).

CCN(CC)CCOC(=O)c1ccccc1OC(C)=O.Cl [2-(diethylamino)ethyl 2-acetoxybenzoate hydrochloride]
stability (after having been stored at 25° C.±2° C. for 12 months): very good stability
pH value (Month 0): 4.82
Other related substances (Month 0): Not detected
Related substances 2-(diethylamino)ethyl-salicylate hydrochloride (Month 0): 0.58%
Related substances Acetylsalicylic acid (Month 0): 0.0059%
Related substances Salicylic acid (Month 0): Not detected
Content (Month 0): 99.58%
pH value (Month 3): 4.83
Other related substances (Month 3): Not detected
Related substances 2-(diethylamino)ethyl-salicylate hydrochloride (Month 3): 0.65%
Related substances Acetylsalicylic acid (Month 3): 0.0063%
Related substances Salicylic acid (Month 3): 0.00254%
Content (Month 3): 99.51%
pH value (Month 6): 4.81
Other related substances (Month 6): Not detected
Related substances 2-(diethylamino)ethyl-salicylate hydrochloride (Month 6): 0.58%
Related substances Acetylsalicylic acid (Month 6): 0.0070%
Related substances Salicylic acid (Month 6): 0.00101%
Content (Month 6): 99.59%
pH value (Month 9): 4.79
Other related substances (Month 9): Not detected
Related substances 2-(diethylamino)ethyl-salicylate hydrochloride (Month 9): 0.60%
Related substances Acetylsalicylic acid (Month 9): 0.0048%
Related substances Salicylic acid (Month 9): 0.00083%
Content (Month 9): 99.57%
pH value (Month 12): 4.83
Other related substances (Month 12): Not detected
Related substances 2-(diethylamino)ethyl-salicylate hydrochloride (Month 12): 0.62%
Related substances Acetylsalicylic acid (Month 12): 0.0053%
Related substances Salicylic acid (Month 12): 0.00103%
Content (Month 12): 99.58%
